Measurements: PubChem BioAssay (NCI)
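Interpolation was linear, between the two tested concentrations surrounding the appropriate level; five concentrations were tested over 48 hours in 96-well plates. TGI denotes the concentration required for complete inhibition of growth.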

Columns and labels:
Assay in all cases: DTP human tumour cell line panel, 48 h
A498 renal = system: A498 renal
M19-MEL melanoma = system: M19-MEL melanoma
CAKI-1 renal = system: CAKI-1 renal
SK-MEL-5 melanoma = system: SK-MEL-5 melanoma
OVCAR-8 ovarian = system: OVCAR-8 ovarian
KM20L2 colon = system: KM20L2 colon
HCC-2998 colon = system: HCC-2998 colon
OVCAR-4 ovarian = system: OVCAR-4 ovarian
EKVX NSCLC = system: EKVX NSCLC
DLD-1 colon = system: DLD-1 colon
SK-MEL-28 melanoma = system: SK-MEL-28 melanoma
CCRF-CEM leukemia = system: CCRF-CEM leukemia
OVCAR-5 ovarian = system: OVCAR-5 ovarian
SK-OV-3 ovarian = system: SK-OV-3 ovarian
M14 melanoma = system: M14 melanoma
HT29 colon = system: HT29 colon
U251 CNS = system: U251 CNS
SN12C renal = system: SN12C renal
K-562 leukemia = system: K-562 leukemia
UACC-62 melanoma = system: UACC-62 melanoma
NCI-H226 lung = system: NCI-H226 lung
SF-295 CNS = system: SF-295 CNS
A549 NSCLC = system: A549 NSCLC
HOP-18 NSCLC = system: HOP-18 NSCLC
HCT-116 colon = system: HCT-116 colon
MALME-3M melanoma = system: MALME-3M melanoma
KM12 colon = system: KM12 colon
HL-60(TB) leukemia = system: HL-60(TB) leukemia
UO-31 renal = system: UO-31 renal
LXFL 529 NSCLC = system: LXFL 529 NSCLC
SF-268 CNS = system: SF-268 CNS
DMS 114 small cell lung = system: DMS 114 small cell lung
UACC-257 melanoma = system: UACC-257 melanoma
IGROV1 ovarian = system: IGROV1 ovarian
SNB-78 CNS = system: SNB-78 CNS
HOP-62 NSCLC = system: HOP-62 NSCLC
SK-MEL-2 melanoma = system: SK-MEL-2 melanoma
OVCAR-3 ovarian = system: OVCAR-3 ovarian
SNB-19 CNS = system: SNB-19 CNS
SW-620 colon = system: SW-620 colon
LOX IMVI melanoma = system: LOX IMVI melanoma
TK-10 renal = system: TK-10 renal
NCI-H23 lung = system: NCI-H23 lung
SF-539 CNS = system: SF-539 CNS
786-0 renal = system: 786-0 renal
RXF 393 renal = system: RXF 393 renal
SNB-75 CNS = system: SNB-75 CNS
COLO 205 colon = system: COLO 205 colon
RPMI-8226 leukemia = system: RPMI-8226 leukemia
DMS 273 small cell lung = system: DMS 273 small cell lung
NCI-H460 lung = system: NCI-H460 lung
NCI-H522 lung = system: NCI-H522 lung
MOLT-4 leukemia = system: MOLT-4 leukemia
HOP-92 NSCLC = system: HOP-92 NSCLC
ACHN renal = system: ACHN renal
HCT-15 colon = system: HCT-15 colon
XF 498 CNS = system: XF 498 CNS
SR leukemia = system: SR leukemia

Measured: TGI

O=C1C[C@@H]2[C@@H](CCC23CC3)N1
> 100 µM: A498 renal | M19-MEL melanoma | CAKI-1 renal | SK-MEL-5 melanoma | OVCAR-8 ovarian | KM20L2 colon | HCC-2998 colon | OVCAR-4 ovarian | EKVX NSCLC | DLD-1 colon | SK-MEL-28 melanoma | CCRF-CEM leukemia | OVCAR-5 ovarian | SK-OV-3 ovarian | M14 melanoma | HT29 colon | U251 CNS | SN12C renal | K-562 leukemia | UACC-62 melanoma | NCI-H226 lung | SF-295 CNS | A549 NSCLC | HOP-18 NSCLC | HCT-116 colon | MALME-3M melanoma | KM12 colon | HL-60(TB) leukemia | UO-31 renal | LXFL 529 NSCLC | SF-268 CNS | DMS 114 small cell lung | UACC-257 melanoma | IGROV1 ovarian | SNB-78 CNS | HOP-62 NSCLC | SK-MEL-2 melanoma | OVCAR-3 ovarian | SNB-19 CNS | SW-620 colon | LOX IMVI melanoma | TK-10 renal | NCI-H23 lung | SF-539 CNS | 786-0 renal | RXF 393 renal | SNB-75 CNS | COLO 205 colon | RPMI-8226 leukemia | DMS 273 small cell lung | NCI-H460 lung | NCI-H522 lung

CSc1nc(NC2OC(COC(C)=O)C(OC(C)=O)C(OC(C)=O)C2OC(C)=O)c(N=C(C)C(C)=O)c(=O)[nH]1 (configuration not stated)
> 100 µM: M19-MEL melanoma | CAKI-1 renal | MOLT-4 leukemia | SK-MEL-5 melanoma | OVCAR-8 ovarian | HCC-2998 colon | OVCAR-4 ovarian | EKVX NSCLC | DLD-1 colon | CCRF-CEM leukemia | SK-OV-3 ovarian | M14 melanoma | HT29 colon | HOP-92 NSCLC | K-562 leukemia | UACC-62 melanoma | NCI-H226 lung | SF-295 CNS | A549 NSCLC | HOP-18 NSCLC | HCT-116 colon | MALME-3M melanoma | KM12 colon | HL-60(TB) leukemia | UO-31 renal | DMS 114 small cell lung | UACC-257 melanoma | IGROV1 ovarian | SNB-78 CNS | HOP-62 NSCLC | SK-MEL-2 melanoma | OVCAR-3 ovarian | SNB-19 CNS | SW-620 colon | TK-10 renal | SF-539 CNS | 786-0 renal | COLO 205 colon | RPMI-8226 leukemia

O=C1C(=O)N(c2ccc(Cl)cc2)C(=O)C(=O)C1c1nc2ccccc2s1
> 100 µM: M19-MEL melanoma | CAKI-1 renal | MOLT-4 leukemia | SK-MEL-5 melanoma | OVCAR-8 ovarian | KM20L2 colon | HCC-2998 colon | OVCAR-4 ovarian | EKVX NSCLC | ACHN renal | SK-MEL-28 melanoma | HCT-15 colon | OVCAR-5 ovarian | SK-OV-3 ovarian | M14 melanoma | HT29 colon | U251 CNS | SN12C renal | HOP-92 NSCLC | K-562 leukemia | UACC-62 melanoma | XF 498 CNS | NCI-H226 lung | SF-295 CNS | HOP-18 NSCLC | HCT-116 colon | MALME-3M melanoma | KM12 colon | UO-31 renal | LXFL 529 NSCLC | SF-268 CNS | DMS 114 small cell lung | UACC-257 melanoma | IGROV1 ovarian | SNB-78 CNS | HOP-62 NSCLC | SK-MEL-2 melanoma | OVCAR-3 ovarian | SNB-19 CNS | SW-620 colon | LOX IMVI melanoma | TK-10 renal | NCI-H23 lung | SF-539 CNS | 786-0 renal | RXF 393 renal | SNB-75 CNS | COLO 205 colon | RPMI-8226 leukemia | DMS 273 small cell lung | NCI-H460 lung | NCI-H522 lung

NNc1cnn(-c2ccccc2)c(=O)c1Cl
> 100 µM: A498 renal | M19-MEL melanoma | CAKI-1 renal | MOLT-4 leukemia | SK-MEL-5 melanoma | OVCAR-8 ovarian | KM20L2 colon | OVCAR-4 ovarian | ACHN renal | DLD-1 colon | SK-MEL-28 melanoma | CCRF-CEM leukemia | HCT-15 colon | OVCAR-5 ovarian | SK-OV-3 ovarian | M14 melanoma | HT29 colon | U251 CNS | SN12C renal | HOP-92 NSCLC | K-562 leukemia | UACC-62 melanoma | NCI-H226 lung | SF-295 CNS | A549 NSCLC | HOP-18 NSCLC | SR leukemia | HCT-116 colon | MALME-3M melanoma | KM12 colon | HL-60(TB) leukemia | UO-31 renal | LXFL 529 NSCLC | SF-268 CNS | DMS 114 small cell lung | UACC-257 melanoma | IGROV1 ovarian | SNB-78 CNS | HOP-62 NSCLC | SK-MEL-2 melanoma | OVCAR-3 ovarian | SW-620 colon | LOX IMVI melanoma | TK-10 renal | NCI-H23 lung | SF-539 CNS | 786-0 renal | RXF 393 renal | SNB-75 CNS | COLO 205 colon | RPMI-8226 leukemia | DMS 273 small cell lung | NCI-H460 lung | NCI-H522 lung
